In patent US20240382498A1, “NOVEL INHIBITOR OF HYPE-MEDIATED AMPYLATION” (Purdue Research Foundation, priority 2023, published 2024):
Where two headings read alike, the source gives them in different places.

What was measured:
[1] = biological target: T1, E234G HYPE AMPylation of T229A BiP (Homo sapiens, UniProt Q9BVA6, E234G); experiment: Fluorescence in-gel T229A BiP AMPylation assay with E234G HYPE and Fl-ATP; assay type: biochemical; details: 10 μM compound
T1 construct: Δ102 (aa 103-458) HYPE constructs (WT, E234G, and E234G/H363A); His6-SUMO (cleaved yes); made in house; host or cells: E. coli BL21-DE3-RILP
T1 sequence (Q9BVA6 103-458 E234G): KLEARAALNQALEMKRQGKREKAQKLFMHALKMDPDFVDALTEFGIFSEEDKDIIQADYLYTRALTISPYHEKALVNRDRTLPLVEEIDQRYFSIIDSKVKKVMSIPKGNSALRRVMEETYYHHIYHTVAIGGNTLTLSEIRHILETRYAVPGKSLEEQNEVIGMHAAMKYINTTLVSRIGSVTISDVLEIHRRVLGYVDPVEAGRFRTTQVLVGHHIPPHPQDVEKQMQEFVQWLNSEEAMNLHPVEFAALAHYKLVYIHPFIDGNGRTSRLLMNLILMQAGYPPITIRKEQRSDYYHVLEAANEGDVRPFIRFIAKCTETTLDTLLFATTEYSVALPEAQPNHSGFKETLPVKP
Description: 1 μM of WT HYPE (final concentration) was preincubated with 10 μM DMSO-dissolved compound (final concentration) or equivalent volume of 100% DMSO at room temperature for 10 min. Reactions were run for 20 hr at 30° C. in the dark and began with the addition of 1 μM Fl-ATP (final concentration). Alternatively, E234G HYPE AMPylation reactions were run at 10 min due to its hyperactivity. All other parameters were held constant. All reactions were performed HTS Buffer (50 mM HEPES, 1 mM MgCl2, 0.1% Triton X-100, pH 7.50). All reactions were quenched with 4×SDS loading dye, boiled for 5 min at 95° C., and samples were run on 12% SDS-PAGE gels. Gels were imaged on a Typhoon 9500 FLA imager (General Electric) for fluorescence at 473 nm. Imaged gels were then stained with Coomassie Brilliant Blue, destained, and imaged for protein concentration. Where specified, 5 μM of T229A BiP (final concentration) was added to reactions before the addition of compound.

E234G HYPE = biological target: T2, E234G HYPE (Homo sapiens, UniProt Q9BVA6, E234G); experiment: Fluorescence polarization (FP) microplate autoAMPylation assay with Fl-ATP, E234G HYPE inhibitor HTS, cherrypick validation and concentration-response; assay type: biochemical; details: for inhibition at 10 µM: 10 μM compound
T2 construct: Δ102 (aa 103-458) HYPE constructs (WT, E234G, and E234G/H363A); His6-SUMO (cleaved yes); made in house; host or cells: E. coli BL21-DE3-RILP
T2 sequence (Q9BVA6 103-458 E234G): T1 sequence (Q9BVA6 103-458 E234G)
Description: Buffer optimization experiments were performed by incubating 0.4 μM of Δ102 HYPE enzyme with 25 nM Fl-ATP (final concentrations) in HTS buffer (50 mM HEPES (pH 7.5), 1 mM MgCl2, 0.1% Triton X-100, 1% DMSO) in the dark at room temperature for 10 min in 384-well black bottom, black wall microplates (20 μL reaction volume). Where specified, 1 mM MgCl2 was replaced with an equivalent concentration of MnCl2, or 0.1% Triton X-100 was replaced with 0.05% or 0.01% Trion X-100. Microplates were snap centrifuged at 1000 g for 10 sec. Microplates were loaded onto a BioTek BioStack NEO2 plate-reader and assessed for fluorescence polarization with 485/530 nm filters and a 55/50 gain adjustment.
A Multidrop 384 reagent dispenser (ThermoFisher) was used to add 0.4 μM HYPE, then 25 nM Fl-ATP (final concentrations) to 384-well black/black microplates (20 μL reaction volume). Both enzyme and nucleotide were dissolved in HTS Buffer. AMPylation Reactions were incubated for 10 min at room temperature in the dark. Microplates were snap centrifuged at 1000 g for 10 sec, then transferred to BioTek BioStack NEO2 plate-reader. Reactions were assessed for fluorescence polarization with 485/530 nm filters and a 55/50 gain adjustment. Z′, S/B, and CV values were determined by fitting the data to Eq. 1, 2, and 3, respectively,
An Echo Liquid Handler (Labcyte) was used to transfer 200 nL of DMSO-dissolved compounds via acoustic-coupled ejection from 10 mM source plates into 384-well black, flat-bottom, black-walled microplates, for a final compound concentration of 10 μM. Compounds were sourced from the following libraries: DIVERset (Chembridge), CNS-Set (Chembridge). The compounds went into columns 3-22 of each plate, while columns 1, 2, 23, and 24 were reserved for equivalent volume of 100% DMSO controls.
A Multidrop 384 reagent dispenser was used to pipette 0.4 μM of WT HYPE (final concentration) dissolved in HTS Buffer into columns 1-22 of the activator plates, and columns 1 and 2 of the inhibitor plates as positive controls. 0.4 μM of E234G HYPE was similarly added to columns 3-24 of the inhibitor plates, and columns 23 and 24 of the […]. Enzymes were then incubated with either compounds or DMSO for 10 min at room temperature.
A Multidrop 384 reagent dispenser was used to pipette 25 nM of Fl-ATP (final concentration) into all wells of each plate, giving a final reaction volume of 20 μL. Plates were then incubated for 10 min at room temperature in the dark, followed by a snap centrifugation at 1000 g for 10 sec. Microplates were loaded onto BioTek BioStack stacker and read in succession for fluorescence polarization with 485/530 nm filters and a 55/50 gain adjustment. Fluorescence polarization values were converted to fractional activation (FA) or fractional inhibition FI) values according to Eq. (3) or (4), respectively,
[formula] [formula] • where μp and μn are the means of the positive (E234G HYPE) and negative (WT HYPE) controls, respectively; and x is the measured value of fluorescence polarization.
Microplate “cherrypicking” validations were performed as described above.
A Multidrop 384 reagent dispenser was used to pipette 0.4 μM of WT or E234G HYPE (final concentrations) dissolved in HTS Buffer into designated microplate wells. 10 μM of DMSO-dissolved compounds (final concentrations) or equivalent volume of 100% DMSO were manually pipetted into their specified wells. Enzymes were incubated with compounds or DMSO for 10 min at room temperature. Reagent dispenser was then used to pipette 25 nM of Fl-ATP (final concentration) into each well, followed by a 10 min incubation at room temperature in the dark. Plates were snap centrifuged at 1000 g for 10 sec, then transferred to BioTek BioStack NEO2 plate-reader. Reactions were assessed for fluorescence polarization with 485/530 nm filters and a 55/50 gain adjustment. EC50 and IC50 values were determined by fitting polarization values to Eq. (5) and (6), respectively, […]

c1cn(-c2ccc(-c3nnc(-c4ccoc4)o3)cn2)cn1 [Compound I2.10]
inhibition of T229A BiP AMPylation in gel [1]: confirm the inhibitory properties | AMPylation at in vitro saturation point of inhibition (E234G HYPE; 50 μM): zero percent AMPylation | IC50 (concentration-response of E234G HYPE inhibition) (E234G HYPE; FP microplate, inhibitors 0 to 200 μM): low micromolar | inhibition at 10 µM (E234G HYPE; cherrypick validation, same FP assay, read-out: % Inh. Cherry-pick): 29.7% | inhibition at 10 µM (E234G HYPE; initial HTS, normalized to WT and E234G HYPE DMSO controls, read-out: % Inh. HTS): 24.5% | Mean % Inh. (E234G HYPE; mean of HTS and cherrypick): 27.1%
